# Assay results from patent US20150025132A1, “COMPOSITIONS AND METHODS FOR INHIBITING ENDOSPORES USING GREEN TEA POLYPHENOLS” (priority 2013, published 2015).
# How the values were obtained:
# [1] = system: Bacillus megaterium spores; assay: Viability of heat-treated spores after treatment, colony count on nutrient agar; assay type: cell-based; conditions: 10%
# Experimental: Bacillus megaterium spores were induced through process of starvation for 2 hours in sterile deionized water and then heated at 90° C. for 20 minutes. The heated samples were treated with 10% of EGCG or EGCG-ester for 1 hour or 24 hours respectively and then plated onto nutrient agar plates with a countable range of 150 to 300 CPU (colony counting unit). The non-starved cells and starved cells without treatment were used as controls.
# B. subtilis = assay: Inhibition of endospore germination (outgrowth), plating on nutrient agar; assay type: cell-based, Bacillus subtilis; conditions: for Average Inhibition of Spore Germination: Table 2, B. subtilis, 2 hours treatment; for Average Percent Inhibition of B. subtilis: Table 5 (FIG. 4)
# Experimental: (§1) Heated samples were treated with 1, 5, 10% of GTP (mixed green tea polyphenols), LTP (lipophilic green tea polyphenols), EGCg (epigallocatechingallate), or EGCg-Stearate for 2 hours, diluted and plated onto nutrient agar plates, and incubated at 37° C. for 24 hours. Non-starved cells and starved cells without treatment were used as controls.
# (§2) Germination, specifically outgrowth, of purified endospores in Bacillus cereus, B. megaterium, and B. subtilis was studied by treating the bacteria with four different green tea polyphenols: GTP (mixed green tea polyphenols), LTP (lipophilic green tea polyphenols), EGCg (epigallocatechingallate), and EGCg-Stearate.
# B. cereus = assay: as above; assay type: cell-based, Bacillus cereus; conditions: for Average Inhibition of Spore Germination: Table 2, B. cereus, 2 hours treatment; for Average Percent Inhibition of B. cereus: Table 3 (FIG. 2)
# Experimental: as §1, §2
# B. megaterium = assay: as above; assay type: cell-based, Bacillus megaterium; conditions: for Average Inhibition of Spore Germination: Table 2, B. megaterium, 2 hours treatment; for Average Percent Inhibition of B. megaterium: Table 4 (FIG. 3)
# Experimental: as §1, §2
Compound,Inhibition of viability of Bacillus megaterium spores compared to the control ([1]; after 24 hours-incubation at 37° C.),Viable cells or colonies of Bacillus megaterium detected ([1]; both 1 hour and 24 hours treated samples),Average Inhibition of Spore Germination (B. subtilis; 1%),Average Inhibition of Spore Germination (B. subtilis; 5%),Average Inhibition of Spore Germination (B. subtilis; 10%),Average Percent Inhibition of B. subtilis (B. subtilis; concentration 1%),Average Percent Inhibition of B. subtilis (B. subtilis; concentration 5%),Average Inhibition of Spore Germination (B. cereus; 1%),Average Inhibition of Spore Germination (B. cereus; 5%),Average Inhibition of Spore Germination (B. cereus; 10%),Average Percent Inhibition of B. cereus (B. cereus; concentration 1%),Average Percent Inhibition of B. cereus (B. cereus; concentration 5%),Average Percent Inhibition of B. cereus (B. cereus; concentration 10%),Average Inhibition of Spore Germination (B. megaterium; 10%),Average Percent Inhibition of B. megaterium (B. megaterium; concentration 1%),Average Percent Inhibition of B. megaterium (B. megaterium; concentration 5%),Average Percent Inhibition of B. megaterium (B. megaterium; concentration 10%),Average Inhibition of Spore Germination (B. megaterium; 1%),Average Inhibition of Spore Germination (B. megaterium; 5%)
"O=C(O[C@@H]1Cc2c(O)cc(O)cc2O[C@@H]1c1cc(O)c(O)c(O)c1)c1cc(O)c(O)c(O)c1 [EGCg, (−)-epigallocatechin-3-gallate]",90%,no viable cells or colonies,52.9%,45.1%,66.1%,99.95%,100%,16.9%,25.7%,33.0%,94.18%,91.68%,99%,100.0%,96.39%,99.48%,99.85%,–,–
"CCCCCCCCCCCCCCCCCC(=O)Oc1c(O)cc([C@H]2Oc3cc(O)cc(O)c3C[C@H]2OC(=O)c2cc(O)c(O)c(O)c2)cc1O [EGCg-Stearate, (−)-epigallocatechin-3-gallate (EGCG) esterified at the 4′ position with stearic acid]",–,–,55.0%,58.1%,69.2%,99.93%,98.77%,72.6%,56.6%,90.5%,88.81%,98.49%,98%,79.0%,99.84%,91.91%,97.14%,70.5%,75.0%
